Laboratory results reported in ChEMBL document CHEMBL6103575, “Design, synthesis and evaluation of (E)-1-(4-(2-(1H-pyrazol-5-yl)vinyl)phenyl) derivatives as next generation selective RET inhibitors overcoming RET solvent front mutations (G810C/R)” (Eur J Med Chem, 2025).
pIC50: −log10 of the molar value.

How the values were obtained:
[1] = Induction of cell cycle arrest in mouse BaF3 cells harboring CCDC6-RET G810R mutant assessed as accumulation of cells at G2/M phase at 300 nM incubated for 24 hrs by propidium iodide staining based analysis (reference value: 33.61%); type: functional
[2] = Induction of apoptosis in mouse BaF3 cells harboring CCDC6-RET G810C mutant assessed as late apoptotic cells at 30 nM incubated for 48 hrs by Annexin V-PE staining based flow cytometry analysis (Rvb =4.30%); type: functional
[3] = Induction of cell cycle arrest in mouse BaF3 cells harboring CCDC6-RET G810C mutant assessed as accumulation of cells at G0/G1 phase at 100 nM incubated for 24 hrs by propidium iodide staining based analysis (reference value: 52.11%); type: functional
[4] = Induction of apoptosis in mouse BaF3 cells harboring CCDC6-RET G810R mutant assessed as necrotic cells at 10 nM incubated for 48 hrs by Annexin V-PE staining based flow cytometry analysis (Rvb =0.30%); type: functional
[5] = Induction of apoptosis in mouse BaF3 cells harboring CCDC6-RET G810R mutant assessed as late apoptotic cells at 300 nM incubated for 48 hrs by Annexin V-PE staining based flow cytometry analysis (Rvb =3.21%); type: functional
[6] = Induction of cell cycle arrest in mouse BaF3 cells harboring CCDC6-RET G810C mutant assessed as accumulation of cells at S phase at 30 nM incubated for 24 hrs by propidium iodide staining based analysis (reference value: 12.47%); type: functional
[7] = Induction of cell cycle arrest in mouse BaF3 cells harboring CCDC6-RET G810R mutant assessed as accumulation of cells at S phase at 10 nM incubated for 24 hrs by propidium iodide staining based analysis (reference value: 13.66%); type: functional
[8] = molecular target: Proto-oncogene tyrosine-protein kinase receptor Ret (Homo sapiens, UniProt P07949); test: Inhibition of RET (unknown origin)
[9] = molecular target: Proto-oncogene tyrosine-protein kinase receptor Ret (Homo sapiens, UniProt P07949, G810R); test: Inhibition of RET (unknown origin) G810R mutant
[10] = Induction of apoptosis in mouse BaF3 cells harboring CCDC6-RET G810R mutant assessed as viable cells at 30 nM incubated for 48 hrs by Annexin V-PE staining based flow cytometry analysis (Rvb =86.40%); type: functional; conditions: read-out: Activity
[11] = Induction of apoptosis in mouse BaF3 cells harboring CCDC6-RET G810R mutant assessed as late apoptotic cells at 10 nM incubated for 48 hrs by Annexin V-PE staining based flow cytometry analysis (Rvb =3.21%); type: functional
BaF3 [12] = test: Inhibition of SHC phosphorylation in mouse BaF3 cells harboring CCDC6-RET incubated for 12 hrs by Western blotting analysis; type: cell-based; conditions: dose <= 300.0 nM
[13] = Induction of apoptosis in mouse BaF3 cells harboring CCDC6-RET G810C mutant assessed as viable cells at 30 nM incubated for 48 hrs by Annexin V-PE staining based flow cytometry analysis (Rvb =86.47%); type: functional; conditions: read-out: Activity
BaF3 [14] = test: Antiproliferative activity against mouse BaF3 cells harbouring CCDC6-RET V804M mutant assessed as inhibition of cell proliferation incubated for 72 hrs by CCK-8 assay; type: functional, cell-based; conditions: BaF3, 72 h
[15] = Induction of apoptosis in mouse BaF3 cells harboring CCDC6-RET G810R mutant assessed as early apoptotic cells at 300 nM incubated for 48 hrs by Annexin V-PE staining based flow cytometry analysis (Rvb =10 %); type: functional
[16] = Toxicity in SCID mouse implanted with mouse BaF3 cells assessed as change in body weight at 25 mg/kg, ip administered once daily for 10 days; type: organism-based; conditions: in vivo, 240 h, time 10 day
[17] = Induction of apoptosis in mouse BaF3 cells harboring CCDC6-RET assessed as early apoptotic cells at 100 nM incubated for 48 hrs by Annexin V-PE staining based flow cytometry analysis (Rvb =6.21%); type: functional
[18] = molecular target: BDNF/NT-3 growth factors receptor (Homo sapiens, UniProt Q16620); test: Inhibition of TRKB (unknown origin) at 1 uM relative to control
[19] = Induction of cell cycle arrest in mouse BaF3 cells harboring CCDC6-RET assessed as accumulation of cells at G0/G1 phase at 300 nM incubated for 24 hrs by propidium iodide staining based analysis (reference value: 52.51%); type: functional
[20] = Induction of cell cycle arrest in mouse BaF3 cells harboring CCDC6-RET G810R mutant assessed as accumulation of cells at S phase at 300 nM incubated for 24 hrs by propidium iodide staining based analysis (reference value: 13.66%); type: functional
[21] = Induction of cell cycle arrest in mouse BaF3 cells harboring CCDC6-RET assessed as accumulation of cells at G2/M phase at 100 nM incubated for 24 hrs by propidium iodide staining based analysis (reference value: 34.11%); type: functional
BaF3 [22] = test: Inhibition of RET phosphorylation in mouse BaF3 cells harboring CCDC6-RET G810C mutant incubated for 12 hrs by Western blotting analysis; type: cell-based; conditions: dose <= 300.0 nM
[23] = Induction of cell cycle arrest in mouse BaF3 cells harboring CCDC6-RET G810R mutant assessed as accumulation of cells at G0/G1 phase at 300 nM incubated for 24 hrs by propidium iodide staining based analysis (reference value: 52.63%); type: functional
[24] = Induction of cell cycle arrest in mouse BaF3 cells harboring CCDC6-RET assessed as accumulation of cells at S phase at 10 nM incubated for 24 hrs by propidium iodide staining based analysis (reference value: 13.27%); type: functional
[25] = Induction of cell cycle arrest in mouse BaF3 cells harboring CCDC6-RET G810C mutant assessed as accumulation of cells at G2/M phase at 10 nM incubated for 24 hrs by propidium iodide staining based analysis (reference value: 34.75%); type: functional
[26] = Induction of apoptosis in mouse BaF3 cells harboring CCDC6-RET assessed as viable cells at 10 nM incubated for 48 hrs by Annexin V-PE staining based flow cytometry analysis (Rvb =91.16%); type: functional; conditions: read-out: Activity
[27] = Induction of apoptosis in mouse BaF3 cells harboring CCDC6-RET G810C mutant assessed as late apoptotic cells at 100 nM incubated for 48 hrs by Annexin V-PE staining based flow cytometry analysis (Rvb =4.30%); type: functional
[28] = Induction of apoptosis in mouse BaF3 cells harboring CCDC6-RET assessed as late apoptotic cells at 300 nM incubated for 48 hrs by Annexin V-PE staining based flow cytometry analysis (Rvb =2.44%); type: functional
BaF3 [29] = test: Antitumor activity against mouse BaF3 cells implanted in SCID mouse assessed as tumor growth inhibition at 25 mg/kg, ip administered once daily for 10 days; type: functional; conditions: BaF3, 240 h, time 10 day, read-out: TGI
[30] = Induction of apoptosis in mouse BaF3 cells harboring CCDC6-RET G810C mutant assessed as necrotic cells at 100 nM incubated for 48 hrs by Annexin V-PE staining based flow cytometry analysis (Rvb =0.48%); type: functional
BaF3 [31] = test: Inhibition of SHC phosphorylation in mouse BaF3 cells harboring CCDC6-RET G810C mutant incubated for 12 hrs by Western blotting analysis; type: cell-based; conditions: dose <= 300.0 nM

Sequence of BDNF/NT-3 growth factors receptor (Q16620 32-822 limits assumed): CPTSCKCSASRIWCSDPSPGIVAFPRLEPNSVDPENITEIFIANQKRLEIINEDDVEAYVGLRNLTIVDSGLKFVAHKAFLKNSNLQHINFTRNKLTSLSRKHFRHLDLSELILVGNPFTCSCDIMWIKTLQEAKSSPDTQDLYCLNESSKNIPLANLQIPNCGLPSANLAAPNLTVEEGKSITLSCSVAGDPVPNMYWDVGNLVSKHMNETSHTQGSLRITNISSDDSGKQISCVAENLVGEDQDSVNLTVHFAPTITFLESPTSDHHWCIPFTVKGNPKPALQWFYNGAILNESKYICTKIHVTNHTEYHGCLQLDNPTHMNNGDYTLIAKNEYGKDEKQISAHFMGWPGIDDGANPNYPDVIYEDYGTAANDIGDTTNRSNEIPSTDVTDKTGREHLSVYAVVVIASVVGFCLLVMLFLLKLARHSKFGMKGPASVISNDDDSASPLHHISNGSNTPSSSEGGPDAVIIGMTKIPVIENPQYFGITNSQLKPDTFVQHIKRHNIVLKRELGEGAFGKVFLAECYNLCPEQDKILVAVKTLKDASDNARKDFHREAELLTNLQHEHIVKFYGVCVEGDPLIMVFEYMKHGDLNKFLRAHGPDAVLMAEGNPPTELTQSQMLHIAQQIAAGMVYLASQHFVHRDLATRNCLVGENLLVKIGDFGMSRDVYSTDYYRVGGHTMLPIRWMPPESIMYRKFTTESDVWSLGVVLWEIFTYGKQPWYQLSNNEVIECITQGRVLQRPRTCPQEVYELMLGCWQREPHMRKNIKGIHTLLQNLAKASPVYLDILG
Sequence of Proto-oncogene tyrosine-protein kinase receptor Ret (Homo sapiens, UniProt P07949, G810R) (P07949 29-1114 G810R limits assumed): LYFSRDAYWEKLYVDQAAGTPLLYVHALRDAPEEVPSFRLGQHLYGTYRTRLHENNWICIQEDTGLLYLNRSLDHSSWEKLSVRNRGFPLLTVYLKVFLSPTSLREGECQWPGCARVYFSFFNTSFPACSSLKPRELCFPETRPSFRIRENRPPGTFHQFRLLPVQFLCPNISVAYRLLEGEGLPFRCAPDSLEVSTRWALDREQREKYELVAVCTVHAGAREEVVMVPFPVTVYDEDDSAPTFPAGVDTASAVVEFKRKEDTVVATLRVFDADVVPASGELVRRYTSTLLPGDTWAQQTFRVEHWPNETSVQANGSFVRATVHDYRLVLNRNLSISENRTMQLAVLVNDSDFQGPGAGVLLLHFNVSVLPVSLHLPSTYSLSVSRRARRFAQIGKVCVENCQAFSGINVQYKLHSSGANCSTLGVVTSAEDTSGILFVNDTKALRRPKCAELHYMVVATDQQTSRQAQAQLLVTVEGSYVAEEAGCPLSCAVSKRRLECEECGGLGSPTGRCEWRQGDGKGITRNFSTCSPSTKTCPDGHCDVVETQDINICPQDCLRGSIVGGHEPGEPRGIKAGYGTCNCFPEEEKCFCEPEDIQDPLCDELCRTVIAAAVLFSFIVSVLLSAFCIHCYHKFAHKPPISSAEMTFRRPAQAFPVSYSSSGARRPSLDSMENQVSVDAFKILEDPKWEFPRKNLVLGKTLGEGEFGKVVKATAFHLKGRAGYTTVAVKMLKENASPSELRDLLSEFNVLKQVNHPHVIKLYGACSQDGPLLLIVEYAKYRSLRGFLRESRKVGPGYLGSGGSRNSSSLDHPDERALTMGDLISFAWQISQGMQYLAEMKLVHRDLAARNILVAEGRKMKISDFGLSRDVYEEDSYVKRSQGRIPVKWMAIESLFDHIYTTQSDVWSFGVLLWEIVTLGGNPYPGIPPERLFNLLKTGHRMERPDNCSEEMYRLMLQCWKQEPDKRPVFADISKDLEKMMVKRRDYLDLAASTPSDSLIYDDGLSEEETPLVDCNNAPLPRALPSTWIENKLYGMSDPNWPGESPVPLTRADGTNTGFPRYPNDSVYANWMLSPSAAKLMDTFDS
Sequence of Proto-oncogene tyrosine-protein kinase receptor Ret (Homo sapiens, UniProt P07949) (P07949 whole entry): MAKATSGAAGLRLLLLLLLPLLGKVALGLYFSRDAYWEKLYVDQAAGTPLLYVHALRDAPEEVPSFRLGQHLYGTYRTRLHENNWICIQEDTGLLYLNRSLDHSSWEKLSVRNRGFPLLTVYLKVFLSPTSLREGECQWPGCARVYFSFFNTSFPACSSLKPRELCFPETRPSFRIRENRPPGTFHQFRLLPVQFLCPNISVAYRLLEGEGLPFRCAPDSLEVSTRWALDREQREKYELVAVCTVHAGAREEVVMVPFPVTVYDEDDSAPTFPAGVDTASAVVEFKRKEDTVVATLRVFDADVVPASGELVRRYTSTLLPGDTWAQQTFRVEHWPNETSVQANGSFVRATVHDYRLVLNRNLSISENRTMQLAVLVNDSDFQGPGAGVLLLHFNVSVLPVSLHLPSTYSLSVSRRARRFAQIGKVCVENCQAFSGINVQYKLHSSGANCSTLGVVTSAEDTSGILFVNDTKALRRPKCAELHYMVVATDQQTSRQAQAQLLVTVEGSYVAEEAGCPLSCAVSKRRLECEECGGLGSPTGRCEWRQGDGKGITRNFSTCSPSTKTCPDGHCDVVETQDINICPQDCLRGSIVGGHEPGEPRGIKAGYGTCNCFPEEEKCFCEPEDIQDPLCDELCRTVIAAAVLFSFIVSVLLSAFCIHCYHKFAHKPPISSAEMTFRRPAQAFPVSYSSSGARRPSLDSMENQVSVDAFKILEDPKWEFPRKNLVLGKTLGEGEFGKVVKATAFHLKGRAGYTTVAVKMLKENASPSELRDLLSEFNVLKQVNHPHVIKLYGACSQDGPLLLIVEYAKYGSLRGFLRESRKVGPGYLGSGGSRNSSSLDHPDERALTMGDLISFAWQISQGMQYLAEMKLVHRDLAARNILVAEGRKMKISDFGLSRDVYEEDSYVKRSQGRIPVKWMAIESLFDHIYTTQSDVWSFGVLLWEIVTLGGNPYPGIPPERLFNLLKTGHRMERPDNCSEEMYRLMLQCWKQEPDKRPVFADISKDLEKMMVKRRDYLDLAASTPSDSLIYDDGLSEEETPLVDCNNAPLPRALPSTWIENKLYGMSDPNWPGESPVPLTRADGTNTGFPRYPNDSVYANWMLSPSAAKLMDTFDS

Question: What does the source list for `COc1cncc(-c2cn[nH]c2/C=C/c2ccc(NC(=O)Nc3cc(C(C)(C)C(F)(F)F)on3)c(Cl)c2)c1`?
Answer: Activity [1]: 16.09%; Activity [2]: 3.57%; Activity [3]: 66.6%; Activity [4]: 0.17%; Activity [5]: 9.06%; Activity [6]: 11.11%; Activity [7]: 13.31%; pIC50 [8]: 8.38; pIC50 [9]: 7.49; viability at 0.03 µM [10]: 87.4%; Activity [11]: 3.29%; inhibition (BaF3 [12]): Dose-dependent-effect; viability at 0.03 µM [13]: 86.2%; pIC50 (BaF3 [14]): 6.25; Activity [15]: 0.29%; Activity [16]: Non-toxic; Activity [17]: 74.7%; inhibition [18]: 100%; Activity [19]: 84.1%; Activity [20]: 4.8%; Activity [21]: 23.17%; inhibition (BaF3 [22]): Dose-dependent-effect; Activity [23]: 78.85%; Activity [24]: 13.37%; Activity [25]: 33.74%; viability at 0.01 µM [26]: 86.4%; Activity [27]: 1.87%; Activity [28]: 1.39%; inhibition in vivo at 25 mg/kg (BaF3 [29]): 39.7%; Activity [30]: 0.24%; inhibition (BaF3 [31]): Dose-dependent-effect
